Measurements as given in patent publication US7354593B2, “Coccidial vaccine and methods of making and using same” (Merial Limited, priority 2002, dated 2008).
Read-outs that look alike come from different tables or passages of the source.

Legend:
[1] = tested on: Salmonella; assay: Killing of Salmonella by oocyst processing agents
[2] = Floor pen phase: live weight, feed conversion and total mortality during 7-week grow-out; assay type: in vivo, Gallus domesticus (chicken)
Text: The timeline was as follows. On Day 0, birds were weighed by pen. The birds in Groups 1 and 2 were vaccinated as described in Table 9, with 1300 birds per vaccine regime, divided between 2 pens, one in each half of the house. The birds in Group 3 were started on Salinomycin, 60 g/ton, divided as described for Groups 1 and 2. The pens were stocked. Extra hatchmates were retained in wire cages as unvaccinated chicks.
On Day 21, the feed from starter to grower was changed for all birds. Salinomycin was continued in Group 3.
On Day 42, all groups were changed to unmedicated finisher feed and the feed back was weighed.
On Day 49, all birds and feed were weighed and the trial was terminated.
Vaccination/Medication. Three treatments of birds identified as Groups 1-3 in Table 9, were replicated in half houses, three pens per house, 650 birds per pen, for a total of 1300 birds per treatment. Birds in […] were vaccinated as described in Table 9. An additional treatment group (4) was maintained separately in clean cages as unvaccinated, untreated controls, for use in the challenge test only.
Treatment Groups 1, 2, and 4 were given non-medicated feed. Treatment Group 3 was given Salinomycin (60 g/ton) beginning on Day 1 through Day 42. The birds in Group 3 to be challenged were given non-medicated feed after the move to the challenge cages. Starter feed was given until 21 days, grower until 42 days and finisher until 49 days. The feed issued was recorded, and any remaining unconsumed feed was weighed back at the time of feed changes and at termination.
(§1) Observations. Birds were weighed by pen at 0 and 28 days and by pen and sex at 49 days. Dead birds were collected twice daily and necropsy performed to determine cause of death.
(§2) Criteria for Measurement. The primary variables for the floor pen phase were live weights at 28 and 49 days and feed conversion at 49 days. For the challenge phase, primary variables were weight gain six days after challenge, and lesion scores of the upper, mid and cecal gut sections, also at six days after challenge.

[3] = tested on: Clostridium sordelli; assay type: in vivo, Gallus domesticus (chicken); conditions: necrotic enteritis mortality
Method: as §1
Concurrent Medications and Management of Adverse Events. The Coccivac vaccinated birds became sick 14 days into the trial. […] The responsible agent was identified as Clostridium sordelli. All birds in the trial were administered Penicillin G to decrease contamination, and the affects thereof, between pens and to eliminate any difference in treatments among the groups that could skew the coccidiosis results.
It is important to note that the Coccivac vaccinated birds became infected with Clostridium sordelli. Clostridial disease has been linked to infection with coccidiosis in the field. Even though the infection did spread to the other treatments, the Coccivac vaccinated birds were the most affected showing 11.77% mortality.

[4] = tested on: E. acervulina, E. mitis, E. tenella, E. maxima; assay: Challenge phase: polyvalent oral challenge with virulent Eimeria, lesion scores and weight gain six days after challenge; assay type: in vivo, Gallus domesticus (chicken)
Text: Six days following challenge, the vaccinates and controls from each of the Groups in Table 4 were sacrificed, weighed, and the intestines and ceca were examined and scored for lesions. Scoring was in accordance with the Johnson and Reid cocciodial scoring system, as described in Experimental Parisitology, Vol. 28, p 30-36, 1970, the disclosure of which is incorporated by reference in its entirety, as shown in Table 5.
On Day 28, the birds to be challenged were moved to wire cages. Salinomycin was discontinued in Group 3 birds to be challenged. All birds and feed we weighed. Fresh fecal samples were collected from the litter from each group in the large pens, 20 samples per pen. Oocysts by quantified by species.
On Day 29, birds in the cages were challenged using the number of oocysts described in Table 7.
On Day 35, the challenge birds were terminated, the lesions were scored, and weight gains were taken.
Challenge. At Day 28, 3 reps of 10 birds from each pen (total of 60 per treatment) were weighed and moved to the battery cages for challenge with field strains of Eimeria (corresponding to the species used in the vaccine). All birds were given non-medicated feed in the cages. On Day 29, birds of Groups 1-4 were challenged and then terminated on Day 35. Lesion scores and weights were recorded.
as §2

[5] = tested on: Mycoplasma; assay: Killing of Mycoplasma by oocyst processing agent

## [K+].[K+].[O]=[Cr](=[O])([O-])[O][Cr](=[O])(=[O])[O-] [potassium dichromate]
[1]
  killing of Salmonella: effectively killed

## CC[C@@H](C(=O)[C@@H](C)[C@@H](O)[C@H](C)[C@@H]1O[C@@H]([C@@H](CC)C(=O)O)CC[C@@H]1C)[C@H]1O[C@]2(C=C[C@@H](O)[C@]3(CC[C@@](C)([C@H]4CC[C@](O)(CC)[C@H](C)O4)O3)O2)[C@H](C)C[C@@H]1C [SALINOMYCIN, Salinomycin]
[2]; 28 Day Summary
  % All Mortality: 3.76%
  Feed Conversion: 1.383
[2]; 28 Day Summary, commercial birds, floor pens
  Avg Live Wt: 1.45
[2]; 49 Day Summary
  % Mortality Total: 5.38%
  Avg Live Female Wt: 2.63
  Avg Live Male Wt: 3.17
  Avg Total Live Wt: 2.90
  Feed Conversion: 1.86
[3]; 28 Day Summary
  % Mortality NE: 0.46%
[3]; 49 Day Summary
  % Mortality NE: 0.53%
[4]; Day 28, before challenge, 60 birds challenged per treatment
  Initial Wt.: 1435.47ab
[4]; Day 35, six days after challenge
  Final Wt.: 1488.97b
[4]; after challenge
  % Mortality Due to Coccidiosis: 0%
[4]; ceca, six days after challenge, Johnson and Reid score 0 to +4
  Ceca Lesion Score: 3.25a
[4]; mid gut, six days after challenge, Johnson and Reid score 0 to +4
  Middle Lesion Score: 2.90b
[4]; six days after challenge
  6 Day Wt. Gain: 53.50 days
  ATLS (average total lesion score): 2.88a
  TLS (total lesion score): 8.65a
[4]; upper intestine, six days after challenge, Johnson and Reid score 0 to +4
  Upper Lesion Score: 2.50a

## OCl [sodium hypochlorite]
[1]
  killing of Salmonella: effectively killed
[5]
  killing of Mycoplasma: effectively killed
